Assay results published in US6894185B2, “Substituted chiral allosteric hemoglobin modifiers” (Allós Therapeutics, Inc., priority 1999, dated 2005).

Target: T1, hemoglobin (Homo sapiens, UniProt P68871+P69905)
T1 construct: The whole blood samples were collected in heparinized tubes from healthy volunteers; from tissue; host or cells: human whole blood (heparinized) from healthy volunteers
Assay: In vitro whole blood studies (multi-point tonometry and blood gas analysis)
Format: cell-based
Protocol: Structure-allosteric activity relationships were determined from the synthetic chiral effectors comparing the shift in the oxygen binding curve of Hb solutions using a Hemox-Analyzer. In vitro biological activity testing in the presence of plasma proteins was also performed on selected enantiomers and racemates (multi-point tonometry and blood gas analysis) to screen for candidates with potential clinical use. SAR studies compared the degree in shift in P50 values, i.e., the partial pressure of molecular oxygen necessary to half-saturate hemoglobin. An effector that decreases Hb oxygen affinity increases the P50 value relative to the control. Thus, the activity or potency of each analog could be expressed by the ratio P50 (effector)/P50(control). Tables and II and III summarize the p50 values obtained using human whole blood, while Tables IV and V summarize the P50 and the Hill coefficient values (n50) at half-saturation obtained using Hemox-analyzer. The slope of the log of the oxygen binding curves is known as the Hill coefficient. The Hill coefficient measures the degree of cooperativity in binding for an allosteric protein, the normal range for human blood is 2.7-3.2. Table VI presents the results from the whole blood studies given as a ΔP50 and Hill coefficient (n50) values for the enantiomers and racemates.
The whole blood samples were collected in heparinized tubes from healthy volunteers and stored over ice. The sodium salts of the compounds were prepared as described earlier. A 200 mM stock solution of the effector was prepared in DMSO. A 5.0 mM test solution was prepared from 50 μL of the 200 mM test solution and 1950 μL of whole blood. The blood samples were incubated in IL 237 tonometers (Instrumentation Laboratories, Inc. Lexington, Mass.) for approximately 10-12 min at 37° C. and equilibrated at three separate concentrations of O2 (20%, 40%, and 60%). After equilibration at each concentration of O2, a sample was removed via syringe and aspirated into a IL 1420 Automated Blood Gas Analyzer (Instrumentation Laboratories, Inc. Lexington, Mass.) and a IL 482 and IL 682 Co-oximeter (Instrumentation Laboratories, Inc. Lexington, Mass.) to determine the pH, pCO2, pO2 and the hemoglobin oxygen saturation values (sO2), respectively. The measured values for pO2 and sO2 at each oxygen saturation level were then subjected to a non-linear regression analysis using the program Scientist (Micromath, Salt Lake City, Utah) to calculate the P50 and Hill coefficient values.

T1 sequence (P69905 2-142 limits assumed): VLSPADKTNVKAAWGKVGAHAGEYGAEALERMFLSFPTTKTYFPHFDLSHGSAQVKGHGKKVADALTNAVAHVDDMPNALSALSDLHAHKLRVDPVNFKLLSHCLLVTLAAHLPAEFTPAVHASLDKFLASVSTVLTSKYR
T1 sequence (P68871 2-147 limits assumed): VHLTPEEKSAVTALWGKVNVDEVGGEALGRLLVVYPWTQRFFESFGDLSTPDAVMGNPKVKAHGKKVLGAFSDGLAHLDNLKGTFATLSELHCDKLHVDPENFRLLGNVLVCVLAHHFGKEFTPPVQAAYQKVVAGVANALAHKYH

Row | Molecule | Whole Blood Δp50 mm Hg (Table III) | Whole Blood Δp50 mm Hg (Table II)
1 | (2-(2-{4-[(3,5-Dimethyl-phenylcarbamoyl)-methyl]-phenoxy}-2-methyl-propionylamino)-4-pentanoic acid [Compound 29] | 10 mm Hg | 
2 | Cc1cc(C)cc(NC(=O)C2(C)CCc3cc(OC(C)(C)C(=O)O)c(C)c(C)c3O2)c1 (stereo not shown) [Compound 17] |  | 1 mm Hg
3 | Cc1cc(C)cc(NC(=O)Cc2ccc(OC(C)(C(=O)O)c3ccccc3)cc2)c1 (stereo not shown) [Compound 15] |  | 12 mm Hg
4 | Cc1cc(C)cc(NC(=O)Cc2ccc(OC(C)(C)C(=O)NC(C(=O)O)C(C)C)cc2)c1 (stereo not shown) [Compound 25] | 20 mm Hg | 
5 | Cc1cc(C)cc(NC(=O)Cc2ccc(OC(C)(C)C(=O)NC(Cc3ccccc3)C(=O)O)cc2)c1 (stereo not shown) [Compound 28] | 20 mm Hg | 
6 | Cc1cc(C)cc(NC(=O)Cc2ccc(OC3(C(=O)N[C@@H](CCC(=O)O)C(=O)O)CCCC3)cc2)c1 [Compound 48, 1-[4-(((3,5-dimethylanilino)carbonyl)methyl)phenoxy]cyclopentanecarbonyl-L-glutamate] | 22 mm Hg | 
7 | Cc1cc(C)cc(NC(=O)Cc2ccc(OC3(C(=O)N[C@@H](Cc4c[nH]c5ccccc45)C(=O)O)CCCC3)cc2)c1 [Compound 47, 1-[4-(((3,5-dimethylanilino)carbonyl)methyl)phenoxy]cyclopentanecarbonyl-L-tryptophan] | 20 mm Hg | 
8 | Cc1cc(C)cc(NC(=O)Cc2ccc(OC3(C(=O)N[C@H](CCCCNC(=O)OCc4ccccc4)C(=O)O)CCCC3)cc2)c1 [Compound 60, N^a-1-[4-(((3,5dimethylanilino)carbonyl)methyl)phenoxy]cyclopentane-carbonyl-N^e-benzyloxycarbonyl-D-lysine] | 14 mm Hg | 
9 | CSCCC(NC(=O)C(C)(C)Oc1ccc(CC(=O)Nc2cc(C)cc(C)c2)cc1)C(=O)O (stereo not shown) [Compound 34, 2-(2-(4-((3,5-Dimethyl-phenylcarbamoyl)-methyl)-phenoxy)-2-methyl-propionylamino)-4-methylsulfanyl-butyric acid] | 11 mm Hg | 
10 | Cc1cc(C)cc(NC(=O)Cc2ccc(OC(C)(C)C(=O)N3CCCC3C(=O)O)cc2)c1 (stereo not shown) [Compound 35] | 12 mm Hg | 
11 | Cc1cc(C)cc(NC(=O)Cc2ccc(OC(C)(C)C(=O)NC(C(=O)O)C(C)C)cc2)c1 (stereo not shown) [Compound 24] | 22 mm Hg | 
12 | 1-[4-(((3,5-dimethylanilino)carbonyl)methyl) phenoxy]cyclopentane carbonyl glycine [Compound 37] | 25 mm Hg | 
13 | CSCCC(NC(=O)C(C)(C)Oc1ccc(CC(=O)Nc2cc(C)cc(C)c2)cc1)C(=O)O (stereo not shown) [Compound 33, 2-(2-(4-((3,5-Dimethyl-phenylcarbamoyl)-methyl)-phenoxy)-2-methyl-propionylamino)-4-methylsulfanyl-butyric acid] | 16 mm Hg | 
14 | Cc1cc(C)cc(NC(=O)Cc2ccc(OC3(C(=O)N[C@@H](CCCCNC(=O)OCc4ccccc4)C(=O)O)CCCC3)cc2)c1 [Compound 59, N^a-1-[4-(((3,5dimethylanilino)carbonyl)methyl)phenoxy]cyclopentane-carbonyl-N^e-benzyloxycarbonyl-L-lysine] | 0.4 mm Hg | 
15 | Cc1cc(C)cc(NC(=O)Cc2ccc(OC(C)(C)C(=O)NCC(=O)O)cc2)c1 [KDD4-24] | 17 mm Hg | 
16 | Cc1cc(C)cc(NC(=O)C(O)c2ccc(OC(C)(C)C(=O)O)cc2)c1 (stereo not shown) [Compound 12, 2-{4-[(3,5-Dimethyl-phenylcarbamoyl)-hydroxy-methyl]-phenoxy}-2-methyl-propionic acid] |  | 21 mm Hg
17 | Cc1cc(C)cc(NC(=O)Cc2ccc(OC3(C(=O)N[C@H](CCCCN)C(=O)O)CCCC3)cc2)c1 [Compound 61, 1-[4-(((3,5-dimethylanilino)carbonyl)methyl)phenoxy]cyclopentanecarbonyl-D-lysine] | −0.2 mm Hg | 

Row | Molecule | Whole Blood Δp50 mm Hg (Table III) | Whole Blood Δp50 mm Hg (Table II)
18 | Cc1cc(C)cc(NC(=O)Cc2ccc(OC(C)(C)C(=O)NC(CSCc3ccccc3)C(=O)O)cc2)c1 (stereo not shown) [Compound 36, 3-Benzylsulfanyl-2-(2-(4-((3,5-Dimethyl)-phenylcarbamoyl)-methyl-phenoxy)-2-methyl-propionylamino)-propionic acid] | 18 mm Hg | 
19 | Cc1cc(C)cc(NC(=O)Cc2ccc(OC(C)(C)C(=O)NC(C)C(=O)O)cc2)c1 (stereo not shown) [Compound 23] | 22 mm Hg | 
20 | Cc1cc(C)cc(NC(=O)Cc2ccc(OC(C(=O)O)c3ccccc3)cc2)c1 (stereo not shown) [Compound 14] |  | 15 mm Hg
21 | COC(=O)C(CCC(=O)O)NC(=O)C(C)(C)Oc1ccc(CC(=O)Nc2cc(C)cc(C)c2)cc1 (stereo not shown) [Compound 30] | 26 mm Hg | 
22 | CCOC(C(=O)Nc1cc(C)cc(C)c1)c1ccc(OC(C)(C)C(=O)O)cc1 (stereo not shown) [Compound 13, 2-{4-[(3,5-Dimethyl-phenylcarbamoyl)-ethoxy-methyl]-phenoxy}-2-methyl-propionic acid] |  | 4 mm Hg
23 | Cc1cc(C)cc(NC(=O)Cc2ccc(OC3(C(=O)N[C@@H](C(=O)O)C(C)C)CCCC3)cc2)c1 [Compound 42, 1-[4-(((3,5-dimethylanilino)carbonyl)methyl)phenoxy]cyclopentanecarbonyl-D-valine] | 27 mm Hg | 
24 | Cc1cc(C)cc(NC(=O)Cc2ccc(OC(C)(C)C(=O)NC(C(=O)O)C(C)C)cc2)c1 (stereo not shown) [Compound 26] | 20 mm Hg | 
25 | Cc1cc(C)cc(NC(=O)Cc2ccc(OC3(C(=O)N[C@@H](Cc4ccccc4)C(=O)O)CCCC3)cc2)c1 [Compound 45, 1-[4-(((3,5-dimethylanilino)carbonyl)methyl)phenoxy]cyclopentanecarbonyl-L-phenylalanine] | 20 mm Hg | 
26 | Cc1cc(C)cc(NC(=O)Cc2ccc(OC3(C(=O)N[C@H](C)C(=O)O)CCCC3)cc2)c1 [Compound 38, 1-[4-(((3,5-dimethylanilino)carbonyl)methyl)phenoxy]cyclopentanecarbonyl-D-alanine] | 30 mm Hg | 
27 | Cc1cc(C)cc(NC(=O)Cc2ccc(OC(C)(C)C(=O)NC(Cc3ccccc3)C(=O)O)cc2)c1 (stereo not shown) [Compound 27] | 10 mm Hg | 
28 | Cc1cc(C)cc(NC(=O)Cc2ccc(OC(C)(C)C(=O)NC(C)C(=O)O)cc2)c1 (stereo not shown) [Compound 22] | 17 mm Hg | 
29 | Cc1cc(C)cc(NC(=O)Cc2ccc(OC3(C(=O)N[C@@H](CSCc4ccccc4)C(=O)O)CCCC3)cc2)c1 [Compound 57, 1-[4-(((3,5-dimethylanilino)carbonyl)methyl)phenoxy]cyclopentanecarbonyl S-benzyl-L-cysteine] | 7 mm Hg | 
30 | CSCC[C@H](NC(=O)C1(Oc2ccc(CC(=O)Nc3cc(C)cc(C)c3)cc2)CCCC1)C(=O)O [Compound 52, 1-[4-(((3,5-dimethylanilino)carbonyl)methyl)phenoxy]cyclopentanecarbonyl-L-methionine] | 21 mm Hg | 
31 | Cc1cc(C)cc(NC(=O)Cc2ccc(OC(C)(C)C(=O)NC(Cc3c[nH]c4ccccc34)C(=O)O)cc2)c1 (stereo not shown) [Compound 32] | 11 mm Hg | 
32 | COC(=O)C(CC(=O)O)NC(=O)C(C)(C)Oc1ccc(CC(=O)Nc2cc(C)cc(C)c2)cc1 (stereo not shown) [Compound 31] | 21 mm Hg | 
33 | Cc1cc(C)cc(NC(=O)Cc2ccc(OC3(C(=O)N[C@@H](CC(=O)O)C(=O)O)CCCC3)cc2)c1 [Compound 55, 1-[4-(((3,5-dimethylanilino)carbonyl)methyl)phenoxy]cyclopentanecarbonyl-L-aspartate] | 27 mm Hg | 
34 | CCC(Oc1ccc(CC(=O)Nc2cc(C)cc(C)c2)cc1)(C(=O)O)c1ccccc1 (stereo not shown) [Compound 16] |  | 12 mm Hg
